Structures can show the parent of a compound that is named as a salt.
What was measured:
mice [1] = assay: analgesic activity, phenylbenzoquinone test (E. SIEGMUND); type: in vivo; conditions: Mus musculus, ip, read-out: ED 50 analgesic property
Text: Soc. Exp. Biol. and Med. 95, 729, (1957).

acute toxicity (LD 50) = conditions: in vivo, ip
Text: To illustrate the invention, there are shown in table IV below, the results obtained in these two tests and the acute toxicity (LD 50) of some compounds of formula (I).

mice [2] = assay: antidepressive activity, antagonism to ptosis after intravenous injection of reserpine; type: in vivo; conditions: Mus musculus, ip, 1 h, i.p., ptosis observed an hour after i.v. reserpine 2 mg/kg, read-out: ED 50 antidepressive property
Text: GOURET and J. THOMAS in J. Pharmacol. (Paris) (1973), 4, 401.

SMILES	ED50 (mice [1])	LD50 (acute toxicity (LD 50))	ED50 (mice [2])
CN(C)CC1C=C(c2ccccc2)c2ccccc2C1 (centres unmarked) [Code Number 1, 3-Dimethylaminomethyl 1-phenyl 3,4-dihydro naphthalene, oxalate]	6 mg/kg	62 mg/kg	10 mg/kg
CN(C)CCC1C=C(c2ccccc2)c2ccccc2C1 (centres unmarked) [Code Number 2]	7.3 mg/kg	110 mg/kg	1 mg/kg
CN(C)CC1Cc2ccccc2C(c2ccccc2F)=N1 (centres unmarked) [Code Number 8]	2.3 mg/kg	35 mg/kg	1.1 mg/kg
CN(C)CC1Cc2ccc(Cl)cc2C(c2ccccc2F)=N1 (centres unmarked) [Code Number 9]	3 mg/kg	52 mg/kg	4.3 mg/kg
CN(C)CC1Cc2ccc(Cl)cc2C(c2ccccc2)=N1 (centres unmarked) [Code Number 11]	3 mg/kg	37 mg/kg	0.8 mg/kg
CN(C)CC1Cc2ccccc2C(c2ccccc2)=N1 (centres unmarked) [compound 6]	5 mg/kg	41 mg/kg	3.5 mg/kg
CN1CCN(CC2Cc3ccccc3C(c3ccccc3)=N2)CC1 (centres unmarked) [compound 7]	6.2 mg/kg	170 mg/kg	10 mg/kg
CN(C)CC1Cc2ccc(F)cc2C(c2ccccc2)=N1 (centres unmarked) [compound 10]	4 mg/kg	60 mg/kg	2.8 mg/kg
Cc1ccc2c(c1)C(c1ccccc1)=NC(CN(C)C)C2 (centres unmarked) [compound 12]	5 mg/kg	50 mg/kg	15 mg/kg
COc1ccc2c(c1)C(c1ccccc1)=NC(CN(C)C)C2 (centres unmarked) [compound 13]	3 mg/kg	65 mg/kg	–
COc1cc2c(cc1OC)C(c1ccccc1)=NC(CN(C)C)C2 (centres unmarked) [compound 14]	15 mg/kg	135 mg/kg	–
NCCC1Cc2ccccc2C(c2ccccc2)=N1 (centres unmarked) [compound 15]	10 mg/kg	67 mg/kg	0.9 mg/kg
CNCCC1Cc2ccccc2C(c2ccccc2)=N1 (centres unmarked) [compound 16]	10 mg/kg	65 mg/kg	8.2 mg/kg
CN(C)CCC1Cc2ccccc2C(c2ccccc2)=N1 (centres unmarked) [compound 17]	6 mg/kg	65 mg/kg	1.5 mg/kg
CN(C)CCC1Cc2c(Cl)cccc2C(c2ccccc2)=N1 (centres unmarked) [compound 18]	1 mg/kg	70 mg/kg	–
CN(C)CCC1Cc2ccc(Cl)cc2C(c2ccccc2)=N1 (centres unmarked) [compound 19]	4 mg/kg	95 mg/kg	3.8 mg/kg
NCCC1Cc2ccccc2C(c2ccccc2F)=N1 (centres unmarked) [compound 20]	3.7 mg/kg	62 mg/kg	1.8 mg/kg
CNCCC1Cc2ccccc2C(c2ccccc2F)=N1 (centres unmarked) [compound 21]	10 mg/kg	70 mg/kg	1.2 mg/kg
CN(C)CCC1Cc2ccccc2C(c2ccccc2F)=N1 (centres unmarked) [compound 22]	6.2 mg/kg	70 mg/kg	0.6 mg/kg

SMILES	ED50 (mice [1])	LD50 (acute toxicity (LD 50))	ED50 (mice [2])
CN(C)CCC1Cc2ccccc2C(c2cccc(F)c2)=N1 (centres unmarked) [compound 23]	2 mg/kg	55 mg/kg	2 mg/kg
CN(C)CCC1Cc2ccccc2C(c2ccc(F)cc2)=N1 (centres unmarked) [compound 24]	8.4 mg/kg	61 mg/kg	2.1 mg/kg
CN(C)CCC1Cc2ccccc2C(c2ccccc2Cl)=N1 (centres unmarked) [compound 25]	3.8 mg/kg	60 mg/kg	3.7 mg/kg
CN(C)CCC1Cc2ccccc2C(c2cccc(Cl)c2)=N1 (centres unmarked) [compound 26]	7.6 mg/kg	65 mg/kg	5.4 mg/kg
CN(C)CCC1Cc2ccccc2C(c2ccc(Cl)cc2)=N1 (centres unmarked) [compound 27]	11 mg/kg	70 mg/kg	4.4 mg/kg
COc1ccccc1C1=NC(CCN(C)C)Cc2ccccc21 (centres unmarked) [compound 28]	10 mg/kg	42 mg/kg	3 mg/kg
COc1cccc(C2=NC(CCN(C)C)Cc3ccccc32)c1 (centres unmarked) [compound 29]	10 mg/kg	78 mg/kg	6.8 mg/kg
COc1ccc(C2=NC(CCN(C)C)Cc3ccccc32)cc1 (centres unmarked) [compound 30]	–	70 mg/kg	4.2 mg/kg
Cc1ccccc1C1=NC(CCN(C)C)Cc2ccccc21 (centres unmarked) [compound 31]	5.6 mg/kg	50 mg/kg	1.8 mg/kg
Cc1cccc(C2=NC(CCN(C)C)Cc3ccccc32)c1 (centres unmarked) [compound 32]	6.6 mg/kg	67 mg/kg	6.6 mg/kg
Cc1ccc(C2=NC(CCN(C)C)Cc3ccccc32)cc1 (centres unmarked) [compound 33]	8.8 mg/kg	70 mg/kg	2.7 mg/kg
CN(C)CCC1Cc2ccccc2C(c2ccccc2[N+](=O)[O-])=N1 (centres unmarked) [compound 34]	3.4 mg/kg	77 mg/kg	1 mg/kg
CN(C)CCC1Cc2ccccc2C(c2ccc([N+](=O)[O-])cc2)=N1 (centres unmarked) [compound 35]	8 mg/kg	80 mg/kg	8 mg/kg
CN(C)CCC1Cc2ccccc2C(c2ccccc2Br)=N1 (centres unmarked) [compound 36]	–	77 mg/kg	2.4 mg/kg
CN(C)CCC1Cc2ccccc2C(C2CCCCC2)=N1 (centres unmarked) [compound 37]	10 mg/kg	82 mg/kg	10 mg/kg
CN(C)CCCC1Cc2ccccc2C(c2ccccc2)=N1 (centres unmarked) [compound 38]	–	85 mg/kg	3.4 mg/kg
CN(C)CCCC1Cc2ccccc2C(c2ccccc2F)=N1 (centres unmarked) [compound 39]	1.9 mg/kg	100 mg/kg	0.7 mg/kg
CN(C)CC1COc2ccccc2C(c2ccccc2)=N1 (centres unmarked) [compound 40]	3 mg/kg	80 mg/kg	–
CN(C)CC1COc2ccccc2C(c2ccccc2F)=N1 (centres unmarked) [compound 41]	7.2 mg/kg	62 mg/kg	3.5 mg/kg

SMILES	ED50 (mice [1])	LD50 (acute toxicity (LD 50))	ED50 (mice [2])
CN(C)CC1COc2ccccc2C(c2ccccc2Cl)=N1 (centres unmarked) [compound 42]	3.5 mg/kg	70 mg/kg	7 mg/kg
CN(C)CC1COc2ccccc2C(c2cccc(Cl)c2)=N1 (centres unmarked) [compound 43]	10 mg/kg	65 mg/kg	3 mg/kg
CN(C)CC1COc2ccccc2C(c2ccc(Cl)cc2)=N1 (centres unmarked) [compound 44]	9.8 mg/kg	130 mg/kg	10 mg/kg
CN(C)CCC1COc2ccccc2C(c2ccccc2)=N1 (centres unmarked) [compound 45]	16.5 mg/kg	160 mg/kg	12 mg/kg
CN(C)CCC1Cc2ccccc2C(c2ccccn2)=N1 (centres unmarked) [compound 86]	10 mg/kg	94 mg/kg	4 mg/kg
CN(C)CC1COc2ccccc2C(c2cccc(F)c2)=N1 (centres unmarked) [compound 87]	–	100 mg/kg	30 mg/kg
CN1CCN(CC2Cc3c(Cl)cccc3C(c3ccccc3)=N2)CC1 (centres unmarked) [compound 94]	22 mg/kg	140 mg/kg	–
CCN(CC)CC1Cc2ccc(C)cc2C(c2ccccc2)=N1 (centres unmarked) [compound 95]	10 mg/kg	45 mg/kg	–
Cc1ccc2c(c1)C(c1ccccc1)=NC(CN1CCCCC1)C2 (centres unmarked) [compound 97]	10 mg/kg	52 mg/kg	–
Cc1ccc2c(c1)C(c1ccccc1)=NC(CN1CCOCC1)C2 (centres unmarked) [compound 98]	30 mg/kg	125 mg/kg	–
Cc1ccc2c(c1)C(c1ccccc1)=NC(CN1CCN(C)CC1)C2 (centres unmarked) [compound 99]	30 mg/kg	130 mg/kg	–
COc1ccc2c(c1)C(c1ccccc1)=NC(CN1CCN(C)CC1)C2 (centres unmarked) [compound 100]	30 mg/kg	140 mg/kg	9 mg/kg
CN(C)CCC1C=C(c2ccccc2F)c2ccccc2C1 (centres unmarked) [compound 101]	4.3 mg/kg	93 mg/kg	0.4 mg/kg
CN(C)CCC1Cc2ccccc2C(c2ccccc2C(F)(F)F)=N1 (centres unmarked) [compound 103]	–	70 mg/kg	3.8 mg/kg
CN(C)CCC1Cc2ccccc2C(c2cccc(C(F)(F)F)c2)=N1 (centres unmarked) [compound 104]	4.3 mg/kg	62 mg/kg	–
COc1cc2c(cc1OC)C(c1ccccc1)=NC(CCN(C)C)C2 (centres unmarked) [compound 105]	12 mg/kg	165 mg/kg	30 mg/kg
CN1CCN(CCC2Cc3c(Cl)cccc3C(c3ccccc3)=N2)CC1 (centres unmarked) [compound 106]	12 mg/kg	145 mg/kg	–
CN(C)CCC1Cc2ccccc2C(c2cccnc2)=N1 (centres unmarked) [compound 108]	7.6 mg/kg	90 mg/kg	12 mg/kg
